ChEMBL document CHEMBL5214960 (J Med Chem, 2022)
Substitutions are numbered along the chain they refer to. ≈ marks a conversion by molar mass, not a printed value.

Columns and labels:
[1] = Unbound Cmax in plasma of CD-1 mouse at 10 mg/kg, po measured after 8 hrs by LC-MS/MS analysis; type: ADME, organism-based; conditions: in vivo
[2] = target: Tyrosine-protein phosphatase non-receptor type 6 (Homo sapiens, UniProt P29350); test: Inhibition of SHP1 (unknown origin)
[3] = target: Dual specificity protein phosphatase 23 (Homo sapiens, UniProt Q9BVJ7); test: Inhibition of VHZ (unknown origin)
CYP3A4 = CYP3A4 (Homo sapiens, UniProt P08684); test: Inhibition of human hepatic CYP3A4 using midazolam as substrate measured after 3 mins by LC-MS analysis relative to control; type: ADME, tissue-based; set-up: concentration or dose not given beside the values; conditions: human hepatic CYP3A4 (liver), probe midazolam
Chain of CYP3A4 (P08684 whole entry): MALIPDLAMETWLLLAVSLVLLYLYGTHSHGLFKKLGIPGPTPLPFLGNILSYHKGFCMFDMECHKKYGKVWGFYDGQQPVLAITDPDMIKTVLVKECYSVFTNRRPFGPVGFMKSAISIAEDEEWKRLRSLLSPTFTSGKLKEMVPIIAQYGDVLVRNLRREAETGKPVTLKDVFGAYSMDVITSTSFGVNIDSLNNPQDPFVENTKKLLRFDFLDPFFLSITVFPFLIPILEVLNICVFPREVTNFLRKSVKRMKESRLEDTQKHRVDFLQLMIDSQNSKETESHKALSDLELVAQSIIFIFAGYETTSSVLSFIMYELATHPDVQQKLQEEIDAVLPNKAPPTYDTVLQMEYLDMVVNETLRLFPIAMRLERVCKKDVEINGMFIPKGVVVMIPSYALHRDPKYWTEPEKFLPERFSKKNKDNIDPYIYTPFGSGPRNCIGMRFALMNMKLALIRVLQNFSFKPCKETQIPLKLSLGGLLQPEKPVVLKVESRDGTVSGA

[4] = target: Tyrosine-protein phosphatase non-receptor type 13 (Homo sapiens, UniProt Q12923); test: Inhibition of FAP-1(unknown origin)
Chain of Tyrosine-protein phosphatase non-receptor type 13 (Q12923 whole entry): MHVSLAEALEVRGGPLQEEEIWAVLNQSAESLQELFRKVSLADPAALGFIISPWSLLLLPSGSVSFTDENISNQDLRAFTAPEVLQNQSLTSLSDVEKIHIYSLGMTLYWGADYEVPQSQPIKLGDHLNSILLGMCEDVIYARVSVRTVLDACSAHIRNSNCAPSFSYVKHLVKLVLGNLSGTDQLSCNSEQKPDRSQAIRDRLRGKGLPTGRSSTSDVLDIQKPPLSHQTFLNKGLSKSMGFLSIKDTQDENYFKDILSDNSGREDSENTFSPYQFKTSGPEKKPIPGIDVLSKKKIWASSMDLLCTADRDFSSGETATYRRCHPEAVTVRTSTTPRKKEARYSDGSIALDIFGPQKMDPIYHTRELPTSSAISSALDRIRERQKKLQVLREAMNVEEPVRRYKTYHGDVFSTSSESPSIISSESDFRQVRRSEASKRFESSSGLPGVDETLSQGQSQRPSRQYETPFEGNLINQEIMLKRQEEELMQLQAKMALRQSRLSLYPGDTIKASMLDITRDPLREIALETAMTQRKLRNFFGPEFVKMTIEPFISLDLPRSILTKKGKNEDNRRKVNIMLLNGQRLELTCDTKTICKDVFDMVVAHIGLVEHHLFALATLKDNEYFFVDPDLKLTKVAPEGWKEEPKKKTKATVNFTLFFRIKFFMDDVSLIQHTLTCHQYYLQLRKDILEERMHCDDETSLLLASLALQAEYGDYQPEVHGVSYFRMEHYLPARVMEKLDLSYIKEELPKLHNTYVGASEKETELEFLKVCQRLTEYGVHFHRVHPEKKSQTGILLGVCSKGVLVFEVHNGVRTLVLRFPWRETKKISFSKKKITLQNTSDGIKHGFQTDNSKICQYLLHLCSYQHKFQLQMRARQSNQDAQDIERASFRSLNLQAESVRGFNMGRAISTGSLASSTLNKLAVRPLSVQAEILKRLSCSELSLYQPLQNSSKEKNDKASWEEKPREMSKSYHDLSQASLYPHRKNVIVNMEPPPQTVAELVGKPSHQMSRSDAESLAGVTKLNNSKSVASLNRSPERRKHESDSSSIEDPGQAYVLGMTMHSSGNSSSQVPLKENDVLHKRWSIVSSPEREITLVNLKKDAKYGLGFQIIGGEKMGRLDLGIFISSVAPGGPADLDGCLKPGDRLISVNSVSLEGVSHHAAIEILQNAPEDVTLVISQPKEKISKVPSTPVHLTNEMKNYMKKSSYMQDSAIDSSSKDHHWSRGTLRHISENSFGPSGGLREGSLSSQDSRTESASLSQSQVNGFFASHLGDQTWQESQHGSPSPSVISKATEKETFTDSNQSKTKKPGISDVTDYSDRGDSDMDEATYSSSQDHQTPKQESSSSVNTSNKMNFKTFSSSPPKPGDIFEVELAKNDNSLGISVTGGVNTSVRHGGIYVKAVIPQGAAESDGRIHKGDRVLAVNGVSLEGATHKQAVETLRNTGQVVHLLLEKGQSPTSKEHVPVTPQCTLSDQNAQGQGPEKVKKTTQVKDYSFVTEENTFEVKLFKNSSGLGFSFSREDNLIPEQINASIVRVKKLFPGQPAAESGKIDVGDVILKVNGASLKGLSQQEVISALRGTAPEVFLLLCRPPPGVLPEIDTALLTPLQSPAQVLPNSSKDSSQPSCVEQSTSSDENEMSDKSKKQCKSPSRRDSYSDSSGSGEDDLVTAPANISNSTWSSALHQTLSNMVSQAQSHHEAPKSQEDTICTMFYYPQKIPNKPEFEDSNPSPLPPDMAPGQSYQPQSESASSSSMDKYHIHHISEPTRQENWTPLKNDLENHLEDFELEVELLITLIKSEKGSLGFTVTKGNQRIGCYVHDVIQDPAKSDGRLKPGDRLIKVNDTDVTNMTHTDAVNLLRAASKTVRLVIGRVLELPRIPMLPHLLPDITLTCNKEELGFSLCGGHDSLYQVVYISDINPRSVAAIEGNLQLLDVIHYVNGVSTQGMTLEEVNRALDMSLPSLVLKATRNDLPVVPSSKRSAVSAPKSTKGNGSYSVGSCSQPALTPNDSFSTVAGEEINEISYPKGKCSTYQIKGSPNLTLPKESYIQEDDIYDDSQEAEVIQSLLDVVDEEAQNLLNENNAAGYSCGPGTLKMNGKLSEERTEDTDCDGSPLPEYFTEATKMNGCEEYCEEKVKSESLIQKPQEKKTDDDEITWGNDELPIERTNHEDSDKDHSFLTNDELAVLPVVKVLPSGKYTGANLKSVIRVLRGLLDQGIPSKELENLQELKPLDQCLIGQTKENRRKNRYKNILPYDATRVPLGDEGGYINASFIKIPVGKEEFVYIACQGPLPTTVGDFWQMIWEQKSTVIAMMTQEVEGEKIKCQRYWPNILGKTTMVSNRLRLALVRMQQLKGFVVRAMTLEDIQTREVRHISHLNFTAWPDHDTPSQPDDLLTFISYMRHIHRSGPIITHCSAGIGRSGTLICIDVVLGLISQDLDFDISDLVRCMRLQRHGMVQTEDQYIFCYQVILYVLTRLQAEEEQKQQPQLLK

[5] = Metabolic stability in dog hepatic microsome at 4 uM measured after 30 mins by LC-MS analysis; type: ADME, Canis lupus familiaris; conditions: liver microsomes, read-out: Stability
[6] = Metabolic stability in mouse hepatic microsome at 4 uM measured after 30 mins by LC-MS analysis; type: ADME; conditions: liver microsomes, read-out: Stability
[7] = Volume of distribution at steady state in CD-1 mouse plasma at 2 mg/kg, iv measured after 8 hrs by LC-MS/MS analysis; type: ADME, organism-based; conditions: in vivo
[8] = Inhibition of PTP-Meg2 (unknown origin); set-up: species or system Homo sapiens
[9] = target: RNA polymerase II subunit A C-terminal domain phosphatase SSU72 (Homo sapiens, UniProt Q9NP77); test: Inhibition of SSU72 (unknown origin)
Chain of RNA polymerase II subunit A C-terminal domain phosphatase SSU72 (Q9NP77 whole entry, the tested form may be a part): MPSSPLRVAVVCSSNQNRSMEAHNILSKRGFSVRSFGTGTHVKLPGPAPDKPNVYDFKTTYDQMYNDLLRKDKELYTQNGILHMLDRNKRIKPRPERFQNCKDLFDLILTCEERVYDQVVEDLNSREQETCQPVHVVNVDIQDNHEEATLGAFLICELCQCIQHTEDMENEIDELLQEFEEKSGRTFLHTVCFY

[10] = target: T1, Low molecular weight phosphotyrosine protein phosphatase (Rattus norvegicus, UniProt P41498); test: Inhibition of N-terminal His-tagged full length rat LMW-PTP expressed in Escherichia coli BL21(DE3)
T1 sequence (P41498 whole entry): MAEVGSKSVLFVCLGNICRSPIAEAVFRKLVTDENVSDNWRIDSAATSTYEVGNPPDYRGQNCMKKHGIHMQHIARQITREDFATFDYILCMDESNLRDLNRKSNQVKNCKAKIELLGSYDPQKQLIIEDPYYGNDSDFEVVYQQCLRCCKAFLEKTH

[11] = Half life in CD-1 mouse plasma at 10 mg/kg, po measured after 8 hrs by LC-MS/MS analysis; type: ADME, organism-based; conditions: in vivo
[12] = AUC(0 to 8 hrs) in CD-1 mouse plasma at 10 mg/kg, po measured after 8 hrs by LC-MS/MS analysis; type: ADME, organism-based; set-up: dose 10 mg/kg, time 8 hrs, route po; conditions: in vivo
[13] = Oral bioavailability in CD-1 mouse plasma at 10 mg/kg measured after 8 hrs by LC-MS/MS analysis; type: ADME, organism-based; conditions: mouse, in vivo, po, 10 mg/kg, 8 h
[14] = target: Receptor-type tyrosine-protein phosphatase alpha (Homo sapiens, UniProt P18433); test: Inhibition of PTPalpha (unknown origin)
[15] = target: Receptor-type tyrosine-protein phosphatase beta (Homo sapiens, UniProt P23467); test: Inhibition of PTPbeta (unknown origin)
CYP2D6 = CYP2D6 (Homo sapiens, UniProt P10635); test: Inhibition of human hepatic CYP2D6 using bufuralol HCL as substrate measured after 3 mins by LC-MS analysis relative to control; type: ADME, tissue-based; set-up: concentration or dose not given beside the values; conditions: human hepatic CYP2D6 (liver), probe bufuralol HCl
[16] = Cmax in Sprague-Dawley rat plasma at 30 mg/kg, po measured after 24 hrs by LC-MS/MS analysis; type: ADME, organism-based; set-up: time 24 hrs, dose 30 mg/kg, route po; conditions: in vivo
[17] = Unbound Cmax in plasma of CD-1 mouse at 2 mg/kg, iv measured after 8 hrs by LC-MS/MS analysis; type: ADME, organism-based; conditions: in vivo
[18] = Aqueous solubility of compound at pH 6 by HPLC analysis; type: physicochemical; conditions: buffer
[19] = target: Receptor-type tyrosine-protein phosphatase C (Homo sapiens, UniProt P08575); test: Inhibition of CD45 (unknown origin)
[20] = target: Tyrosine-protein phosphatase non-receptor type 1 (Homo sapiens, UniProt P18031); test: Inhibition of PTP1B (unknown origin)
[21] = Tmax in Sprague-Dawley rat plasma at 30 mg/kg, po measured after 24 hrs by LC-MS/MS analysis; type: ADME, organism-based; conditions: in vivo
[22] = AUC(0 to 8 hrs) in CD-1 mouse plasma at 2 mg/kg, iv measured after 8 hrs by LC-MS/MS analysis; type: ADME, organism-based; set-up: dose 2 mg/kg, time 8 hrs, route iv; conditions: in vivo
[23] = target: Receptor-type tyrosine-protein phosphatase epsilon (Homo sapiens, UniProt P23469); test: Inhibition of PTPepsilon (unknown origin)
[24] = target: Receptor-type tyrosine-protein phosphatase S (Homo sapiens, UniProt Q13332); test: Inhibition of PTPsigma (unknown origin)
[25] = target: Tyrosine-protein phosphatase non-receptor type 2 (Homo sapiens, UniProt P17706); test: Inhibition of TC-PTP (unknown origin)
Chain of Tyrosine-protein phosphatase non-receptor type 2 (P17706 whole entry): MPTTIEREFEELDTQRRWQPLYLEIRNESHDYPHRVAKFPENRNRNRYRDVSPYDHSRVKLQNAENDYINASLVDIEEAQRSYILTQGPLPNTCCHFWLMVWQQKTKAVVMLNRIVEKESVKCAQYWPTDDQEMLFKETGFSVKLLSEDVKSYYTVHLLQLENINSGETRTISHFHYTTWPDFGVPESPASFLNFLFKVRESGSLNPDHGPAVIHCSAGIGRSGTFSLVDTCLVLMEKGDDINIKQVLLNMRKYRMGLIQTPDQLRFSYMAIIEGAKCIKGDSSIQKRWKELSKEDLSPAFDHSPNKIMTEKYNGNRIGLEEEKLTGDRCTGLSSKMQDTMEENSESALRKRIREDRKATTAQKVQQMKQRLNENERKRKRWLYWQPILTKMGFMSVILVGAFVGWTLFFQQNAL

[26] = Half life in CD-1 mouse plasma at 2 mg/kg, iv measured after 8 hrs by LC-MS/MS analysis; type: ADME, organism-based; conditions: mouse, in vivo, iv, 2 mg/kg, 8 h
[27] = target: Receptor-type tyrosine-protein phosphatase mu (Homo sapiens, UniProt P28827); test: Inhibition of PTPmu (unknown origin)
Chain of Receptor-type tyrosine-protein phosphatase mu (P28827 whole entry): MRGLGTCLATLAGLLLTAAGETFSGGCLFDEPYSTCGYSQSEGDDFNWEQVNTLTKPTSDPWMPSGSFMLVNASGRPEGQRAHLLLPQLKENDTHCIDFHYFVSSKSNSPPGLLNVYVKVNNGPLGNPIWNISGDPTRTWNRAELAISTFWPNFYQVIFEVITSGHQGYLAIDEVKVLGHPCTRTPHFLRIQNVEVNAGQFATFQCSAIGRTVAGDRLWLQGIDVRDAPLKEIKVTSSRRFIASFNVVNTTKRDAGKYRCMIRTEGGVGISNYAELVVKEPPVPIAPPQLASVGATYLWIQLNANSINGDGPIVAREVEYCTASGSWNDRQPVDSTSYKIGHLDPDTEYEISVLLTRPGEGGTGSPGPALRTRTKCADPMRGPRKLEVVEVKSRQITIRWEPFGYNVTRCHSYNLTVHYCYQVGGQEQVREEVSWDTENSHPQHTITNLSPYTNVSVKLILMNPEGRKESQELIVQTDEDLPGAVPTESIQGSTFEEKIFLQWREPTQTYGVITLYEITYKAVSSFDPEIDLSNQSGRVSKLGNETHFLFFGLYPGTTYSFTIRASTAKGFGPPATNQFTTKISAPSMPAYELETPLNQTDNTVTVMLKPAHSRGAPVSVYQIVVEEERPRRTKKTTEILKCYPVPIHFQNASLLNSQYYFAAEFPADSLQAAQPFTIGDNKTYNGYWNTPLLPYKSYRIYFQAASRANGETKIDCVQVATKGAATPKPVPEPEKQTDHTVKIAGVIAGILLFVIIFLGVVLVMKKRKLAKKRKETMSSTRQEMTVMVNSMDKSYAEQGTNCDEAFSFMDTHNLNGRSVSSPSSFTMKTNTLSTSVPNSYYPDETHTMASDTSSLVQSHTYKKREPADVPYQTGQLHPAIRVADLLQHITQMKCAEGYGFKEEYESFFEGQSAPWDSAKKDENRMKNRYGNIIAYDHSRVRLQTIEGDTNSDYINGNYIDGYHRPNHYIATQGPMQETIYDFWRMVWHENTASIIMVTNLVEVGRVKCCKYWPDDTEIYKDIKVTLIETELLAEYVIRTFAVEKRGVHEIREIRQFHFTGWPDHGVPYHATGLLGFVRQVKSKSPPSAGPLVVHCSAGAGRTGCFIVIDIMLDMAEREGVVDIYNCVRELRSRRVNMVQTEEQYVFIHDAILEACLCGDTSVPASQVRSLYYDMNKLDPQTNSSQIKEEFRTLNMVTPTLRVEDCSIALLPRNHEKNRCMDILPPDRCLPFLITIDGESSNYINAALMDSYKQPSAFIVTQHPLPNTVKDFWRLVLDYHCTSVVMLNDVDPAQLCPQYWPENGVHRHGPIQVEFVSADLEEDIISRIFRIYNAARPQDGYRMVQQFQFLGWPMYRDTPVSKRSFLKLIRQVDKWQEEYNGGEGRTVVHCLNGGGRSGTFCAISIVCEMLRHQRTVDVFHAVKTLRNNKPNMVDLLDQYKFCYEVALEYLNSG

[28] = Unbound Cmax in plasma of Sprague-Dawley rat at 30 mg/kg, po measured after 24 hrs by LC-MS/MS analysis; type: ADME, organism-based; conditions: in vivo
[29] = target: Tyrosine-protein phosphatase non-receptor type 12 (Homo sapiens, UniProt Q05209); test: Inhibition of PEST(unknown origin)
[30] = AUC(0 to 12 hrs) in Sprague-Dawley rat plasma at 3 mg/kg, po measured after 24 hrs by LC-MS/MS analysis; type: ADME, organism-based; set-up: time 24 hrs, dose 3 mg/kg, route po; conditions: in vivo
[31] = Half life in Sprague-Dawley rat plasma at 3 mg/kg, po measured after 24 hrs by LC-MS/MS analysis; type: ADME, organism-based; conditions: in vivo
[32] = target: Tyrosine-protein phosphatase non-receptor type 7 (Homo sapiens, UniProt P35236); test: Inhibition of HePTP (unknown origin)
[33] = target: Dual specificity protein phosphatase 3 (Homo sapiens, UniProt P51452); test: Inhibition of VHR (unknown origin)
[34] = Half life in Sprague-Dawley rat plasma at 30 mg/kg, po measured after 24 hrs by LC-MS/MS analysis; type: ADME, organism-based; conditions: in vivo
[35] = Cmax in Sprague-Dawley rat plasma at 3 mg/kg, po measured after 24 hrs by LC-MS/MS analysis; type: ADME, organism-based; set-up: time 24 hrs, dose 3 mg/kg, route po; conditions: in vivo
[36] = Metabolic stability in human hepatic microsome at 4 uM measured after 30 mins by LC-MS analysis; type: ADME; conditions: liver microsomes, read-out: Stability
[37] = target: T2, Low molecular weight phosphotyrosine protein phosphatase (Mus musculus, UniProt Q9D358); test: Inhibition of N-terminal His-tagged full length mouse LMW-PTP expressed in Escherichia coli BL21(DE3) by […] analysis
T2 sequence (Q9D358 whole entry): T1 sequence (P41498 whole entry) with N35K, K65R, R80K, H158Y

[38] = target: Receptor-type tyrosine-protein phosphatase gamma (Homo sapiens, UniProt P23470); test: Inhibition of PTPgamma (unknown origin)

## Cc1c(Br)cc(NC(=O)NS(=O)(=O)O)cc1Br
[1]
  fCmax: 233 nM
[2]
  IC50: > 10 µM
[3]
  IC50: > 10 µM
CYP3A4
  inhibition at 0.05 h: 0%
[4]
  IC50: > 10 µM
[5]
  remaining at 0.5 h, 4 µM: 38%
[6]
  remaining at 0.5 h, 4 µM: 30%
[7]
  Vdss: 0.42 L/kg
[8]
  IC50: > 10 µM
[9]
  IC50: > 10 µM
[10]
  IC50: 0.003 µM
[11]
  t1/2: 4.2 h
[12]
  AUC: 37.3 µM·h
[13]
  F: 34%
[14]
  IC50: > 10 µM
[15]
  IC50: > 10 µM
CYP2D6
  inhibition at 0.05 h: 2%
[16]
  Cmax: 6.59 µM
[17]
  fCmax: 322 nM
[18]
  solubility: 9.5 µg/mL (≈ 24.5 µM)
[19]
  IC50: > 10 µM
[20]
  IC50: > 10 µM
[21]
  Tmax: 2.7 h
[22]
  AUC: 15.1 µM·h
[23]
  IC50: > 10 µM
[24]
  IC50: > 10 µM
[25]
  IC50: > 10 µM
[26]
  t1/2: 1.41 h
[27]
  IC50: > 10 µM
[28]
  fCmax: 158 nM
[29]
  IC50: > 10 µM
[30]
  AUC: 4.66 µM·h
[31]
  t1/2: 2.4 h
[32]
  IC50: > 10 µM
[33]
  IC50: > 10 µM
[34]
  t1/2: 2.8 h
[35]
  Cmax: 0.877 µM
[36]
  remaining at 0.5 h, 4 µM: 21%
[37]
  IC50: 0.003 µM
[38]
  IC50: > 10 µM
